From patent EP0450660B1, “Anti-atherosclerotic diaryl compound” (THE WELLCOME FOUNDATION LIMITED, priority 1988, dated 1990)

Experiments:
[1] = target: T1, ACAT (Homo sapiens, UniProt P35610); assay: In vitro inhibition of ACAT (radiometric, [14C]oleoyl CoA substrate, microsomal protein); assay type: biochemical; conditions: enzyme derived from human embryo 407 intestinal epithelial cell line, 37°C, pH 7.0, 4 minutes, read-out: IC₅₀ for ACAT inhibition
T1 construct: Microsomal protein is therefore used as the source of both ACAT and cholesterol; endogenous in cells; host or cells: human embryo 407 intestinal epithelial cell line (microsomal fraction)
T1 sequence (P35610 1-550): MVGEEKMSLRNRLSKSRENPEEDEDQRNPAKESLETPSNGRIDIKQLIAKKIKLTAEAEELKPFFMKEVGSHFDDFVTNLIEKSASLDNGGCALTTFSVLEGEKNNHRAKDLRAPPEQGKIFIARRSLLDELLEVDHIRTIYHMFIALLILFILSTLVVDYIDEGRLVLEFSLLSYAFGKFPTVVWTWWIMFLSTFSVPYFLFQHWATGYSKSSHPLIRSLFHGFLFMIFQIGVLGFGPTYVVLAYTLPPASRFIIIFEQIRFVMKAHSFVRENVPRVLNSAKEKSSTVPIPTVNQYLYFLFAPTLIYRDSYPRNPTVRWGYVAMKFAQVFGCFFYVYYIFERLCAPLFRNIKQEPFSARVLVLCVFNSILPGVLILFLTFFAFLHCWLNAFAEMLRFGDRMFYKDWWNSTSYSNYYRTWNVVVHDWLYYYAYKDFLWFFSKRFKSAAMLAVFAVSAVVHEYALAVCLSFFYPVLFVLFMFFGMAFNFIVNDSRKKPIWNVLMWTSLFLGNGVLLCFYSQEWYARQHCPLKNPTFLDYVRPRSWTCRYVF
Procedure: In vitro inhibition of ACAT
The in vitro esterification of cholesterol in the presence of ACAT and the test compound was assayed radiometrically using [¹⁴C]oleoyl CoA as substrate: [¹⁴C]oleoyl CoA + cholesterol → [¹⁴C]oleoyl cholesterol + CoASH [formula]
The enzyme is membrane-associated in vivo. Microsomal protein is therefore used as the source of both ACAT and cholesterol. The compound of the invention was tested against enzyme derived from human embryo 407 intestinal epithelial cell line.
[¹⁴C]Oleoyl CoA was incubated with microsomal protein at 37°C, pH 7.0, in the presence of various concentrations of the test compound. After 4 minutes, the reaction was stopped by the addition of ice-cold chloroform/methanol containing a known amount of [³H]oleoyl cholesterol to compensate for the loss of any [¹⁴C] product. A known volume of the resulting lower phase, which contains lipidic material from the reaction, was dried, redissolved in hexane containing unlabelled oleoyl cholesterol (TLC marker) and run on a quantitative TLC plate (silica gel). The oleoyl cholesterol spot was visualised (iodine vapour), removed from the TLC plate and its radioactivity measured by scintillation counting.
A plot of ACAT inhibitory activity vs concentration was prepared for the test compound and the corresponding IC₅₀ determined.

[2] = test system: isolated rat liver cells; assay: In vitro cytotoxicity: effects on metabolic competence of isolated rat liver cells; assay type: cell-based
Procedure: The cytotoxicity of the compound of the invention was investigated in vitro by studying its effects on the metabolic competence of isolated rat liver cells. […] A 15% decrease in ATP levels was observed after 90 minutes at a concentration of 100µM.

`CCCCCCCNC(=O)Nc1c(F)cc(F)cc1CCc1ccc(CC(C)(C)C)cc1` [compound of the invention, 1-[2,4-difluoro-6-{2-[4-(2,2-dimethylpropyl)phenyl]ethyl}phenyl]-3-heptylurea] was tested, and the IC50 [1] was 22 nM, the “decrease in ATP levels” value ([2]; after 90 minutes at a concentration of 100µM) was 15% and the effect on gluconeogenesis ([2]; concentrations of up to 100µM) was “No effect”.
